Data on 15 compounds can be found in US10213429B2, “Imidazo-pyrazinyl derivatives useful as soluble guanylate cyclase activators” (Merck Sharp & Dohme Corp., priority 2015, dated 2019).

One assay concerns the target T1, sGC α1/β1 heterodimer (Homo sapiens, UniProt Q02108+Q02153).
T1 construct: expressed in transfected cells; host or cells: CHO-K1 (clone #7, CHO-K1/sGC)
T1 sequence (Q02108 1-690): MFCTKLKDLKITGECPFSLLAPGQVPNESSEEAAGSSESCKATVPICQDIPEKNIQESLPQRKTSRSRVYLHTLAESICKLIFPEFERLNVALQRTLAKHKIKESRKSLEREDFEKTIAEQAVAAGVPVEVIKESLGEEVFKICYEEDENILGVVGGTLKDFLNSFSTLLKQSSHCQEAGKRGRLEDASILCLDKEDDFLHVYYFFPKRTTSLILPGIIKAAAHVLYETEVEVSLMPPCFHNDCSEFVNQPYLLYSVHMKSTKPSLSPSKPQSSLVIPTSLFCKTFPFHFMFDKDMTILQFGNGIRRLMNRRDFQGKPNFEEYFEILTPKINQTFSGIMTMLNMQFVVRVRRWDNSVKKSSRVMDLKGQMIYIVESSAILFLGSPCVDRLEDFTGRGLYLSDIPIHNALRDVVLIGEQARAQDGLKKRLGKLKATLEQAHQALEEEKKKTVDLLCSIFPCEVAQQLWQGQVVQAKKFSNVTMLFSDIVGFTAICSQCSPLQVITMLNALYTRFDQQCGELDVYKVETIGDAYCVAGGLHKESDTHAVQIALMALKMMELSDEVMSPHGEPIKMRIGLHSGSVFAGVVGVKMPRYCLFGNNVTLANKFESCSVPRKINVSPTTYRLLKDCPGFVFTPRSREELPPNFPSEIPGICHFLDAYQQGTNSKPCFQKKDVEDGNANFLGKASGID
T1 sequence (Q02153 1-619): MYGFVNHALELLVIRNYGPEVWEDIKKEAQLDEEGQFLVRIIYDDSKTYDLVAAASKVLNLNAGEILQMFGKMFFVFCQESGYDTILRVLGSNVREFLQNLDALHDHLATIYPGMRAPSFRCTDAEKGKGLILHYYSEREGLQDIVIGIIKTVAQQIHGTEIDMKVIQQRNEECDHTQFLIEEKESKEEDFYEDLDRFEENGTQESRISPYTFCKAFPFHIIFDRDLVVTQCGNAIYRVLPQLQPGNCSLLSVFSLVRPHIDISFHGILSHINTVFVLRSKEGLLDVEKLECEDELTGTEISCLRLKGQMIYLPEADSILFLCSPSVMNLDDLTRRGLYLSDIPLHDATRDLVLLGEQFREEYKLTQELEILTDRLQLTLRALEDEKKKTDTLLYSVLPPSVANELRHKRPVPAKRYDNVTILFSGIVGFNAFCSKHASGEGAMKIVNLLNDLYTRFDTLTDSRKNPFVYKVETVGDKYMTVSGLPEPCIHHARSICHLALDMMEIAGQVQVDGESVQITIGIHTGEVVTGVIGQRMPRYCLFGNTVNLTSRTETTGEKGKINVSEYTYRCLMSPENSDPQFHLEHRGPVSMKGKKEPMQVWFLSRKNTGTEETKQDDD
The assay is described as follows: Cell-Based sGC Functional Assay (CASA Assay), cGMP by HTRF in CHO-K1/sGC cells. Particulars: for Emax: CHO-K1, percent activation relative to maximum cGMP production of Compound A (= 100%), read-out: % Act.; for EC50: cGMP production, 1 hr at 37° C., 4P fit, presence or absence of 1 μM DETA-NO not given, read-out: IP (nM) (inflection point); for % Act.: percent activation relative to maximum cGMP production of Compound A (= 100%). An outline of the steps:
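CHO-K1 cells stably expressing human sGC α1/β1, in EBSS buffer with 5 mM MgCl2, 10 mM HEPES, 0.05% BSA and 0.5 mM IBMX, incubated with compound (2.5% DMSO) ± 1 μM DETA-NO, 1 h, 37 °C. Intracellular cGMP read by HTRF; activity as % of reference activator maximum, IP from 4-parameter fit.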
(In general: TR-FRET usually uses a lanthanide donor and a delayed reading to cut background.)

Assay [1] has as its system Spontaneously hypertensive rats (SHR). The assay is described as follows: Acute Efficacy in Spontaneously Hypertensive Rats (SHR), telemetry blood pressure. Particulars: SHR male. The class given is in vivo, rat. From the text: Acute Efficacy in Spontaneously Hypertensive Rats (SHR)
Spontaneously hypertensive rats (SHR, male, Charles River) were implanted with DSI TA11PA-C40 telemetry device (Data Sciences, Inc., St. Paul, Minn.) under isoflurane or ketamine/metomidine anesthesia. The telemetry unit catheter was inserted into the descending aorta via the femoral artery and the telemetry device was implanted subcutaneously in the left flank area. Animals were allowed to recover from surgery for 14 days before the start of any studies. Blood pressure, heart rate, and activity signals from conscious, freely moving rats were recorded continuously for 30 seconds every 10 minutes. On the day prior to administration of compound, a single oral dose of vehicle (10% transcutol/20% Cremophor/70% water) was administered to all animals to establish baseline control data. The blood pressure lowering efficacy of compound (PO) or vehicle was evaluated following a single oral gavage. Data were collected as hourly averages, and changes in blood pressure were calculated by subtracting control baseline data on an hourly basis. Animals were maintained on normal diet with a 12 hour light-dark cycle.
Maximum peak decreases of systolic blood pressure (SBP) in SHR at a particular P.O. dose (mpk milligrams per kilogram) for the following representative compounds are provided. • Category A=SBP in SHRs<20 mmHg; Category B=SBP in SHRs 20-40 mmHg; • Category C=SBP in SHRs>40 mmHg

Turning to `CC1(c2ccc(Cl)cc2)C(=O)Nc2nc(-c3cn4ccnc4c(CCC(F)(F)C(F)(F)F)n3)nc(O)c21` (stereo not shown) [Example 4A, 5-(4-chlorophenyl)-4-hydroxy-5-methyl-2-(8-(3,3,4,4,4-pentafluorobutyl)imidazo[1,2-a]pyrazin-6-yl)-5H-pyrrolo[2,3-d]pyrimidin-6(7H)-one], at sGC α1/β1 heterodimer, the Emax was 83% and the EC50 amounted to 125 nM. Also, in assay [1] (single oral dose 3.0 mpk P.O.), the “Cat. (maximum peak decrease of systolic blood pressure (SBP) in SHR)” value is “B (Category B=SBP in SHRs 20-40 mmHg)”.
In the case of `CC1(c2ccc(F)cc2)C(=O)Nc2nc(-c3cn4ccnc4c(OCCC4CC4)n3)nc(O)c21` (stereo not shown) [Example 93A, 2-(8-(2-Cyclopropylethoxy)imidazo[1,2-a]pyrazin-6-yl)-5-(4-fluorophenyl)-4-hydroxy-5-methyl-5H-pyrrolo[2,3-d]pyrimidin-6(7H)-one], on sGC α1/β1 heterodimer, the Emax worked out at 86% and the EC50 is 163 nM. In addition, the “Cat. (maximum peak decrease of systolic blood pressure (SBP) in SHR)” value in assay [1] (single oral dose 1.0 mpk P.O.) is reported as “A (Category A=SBP in SHRs<20 mmHg)”.
Consider `CC1(c2ccc(Cl)cn2)C(=O)Nc2nc(-c3cn4ccnc4c(CCC(F)(F)C(F)(F)F)n3)ncc21` (stereo not shown) [Example 36A, 5-(5-Chloropyridin-2-yl)-5-methyl-2-(8-(3,3,4,4,4-pentafluorobutyl)imidazo[1,2-a]pyrazin-6-yl)-5H-pyrrolo[2,3-d]pyrimidin-6(7H)-one], for which, at sGC α1/β1 heterodimer, the Emax is 104% and the EC50 was determined as 54 nM. Also, in assay [1] (single oral dose 0.3 mpk P.O.), the “Cat. (maximum peak decrease of systolic blood pressure (SBP) in SHR)” value is given as “A (Category A=SBP in SHRs<20 mmHg)”.
As to `CC1(c2ccc(Cl)c(F)c2)C(=O)Nc2nc(-c3cn4ccnc4c(CCC(F)(F)F)n3)ncc21` (stereo not shown) [Example 56B, 5-(4-chloro-3-fluorophenyl)-5-methyl-2-(8-(3,3,3-trifluoropropyl)imidazo[1,2-a]pyrazin-6-yl)-5H-pyrrolo[2,3-d]pyrimidin-6(7H)-one], on sGC α1/β1 heterodimer, the Emax came to 95% and the EC50 worked out at 70 nM. Further, the “Cat. (maximum peak decrease of systolic blood pressure (SBP) in SHR)” value in assay [1] (single oral dose 1.0 mpk P.O.) is on record as “A (Category A=SBP in SHRs<20 mmHg)”.
Turning to `Cc1cn2cc(-c3ncc4c(n3)NC(=O)C4(C)c3ccc(F)cn3)nc(CCCC(F)(F)F)c2n1` (stereo not shown) [Example 90B, 5-(5-Fluoropyridin-2-yl)-5-methyl-2-(2-methyl-8-(4,4,4-trifluorobutyl)imidazo[1,2-a]pyrazin-6-yl)-5H-pyrrolo[2,3-d]pyrimidin-6(7H)-one], at sGC α1/β1 heterodimer, the Emax worked out at 191% and the EC50 came to 589 nM. The “Cat. (maximum peak decrease of systolic blood pressure (SBP) in SHR)” value in assay [1] (single oral dose 0.3 mpk P.O.) is “B (Category B=SBP in SHRs 20-40 mmHg)”.
Regarding `CC1(c2ccc(F)cn2)C(=O)Nc2nc(-c3cn4ccnc4c(Cc4ccc(F)cc4)n3)nc(O)c21` (stereo not shown) [Example 6B, 2-(8-(4-fluorobenzyl)imidazo[1,2-a]pyrazin-6-yl)-5-(5-fluoropyridin-2-yl)-4-hydroxy-5-methyl-5H-pyrrolo[2,3-d]pyrimidin-6(7H)-one], on sGC α1/β1 heterodimer, the Emax is 118% and the EC50 was determined as 253 nM. In assay [1] (single oral dose 1.0 mpk P.O.), the “Cat. (maximum peak decrease of systolic blood pressure (SBP) in SHR)” value is “C (Category C=SBP in SHRs>40 mmHg)”.
As to `O=C1Nc2nc(-c3cn4ccnc4c(CCCC(F)(F)F)n3)ncc2C1(c1ccc(Cl)cc1)C1CC1` (stereo not shown) [Example 50B, 5-(4-chlorophenyl)-5-cyclopropyl-2-(8-(4,4,4-trifluorobutyl)imidazo[1,2-a]pyrazin-6-yl)-5H-pyrrolo[2,3-d]pyrimidin-6(7H)-one], on sGC α1/β1 heterodimer, the Emax stood at 155% and the EC50 worked out at 63 nM. Further, the “Cat. (maximum peak decrease of systolic blood pressure (SBP) in SHR)” value in assay [1] (single oral dose 1.0 mpk P.O.) is recorded as “B (Category B=SBP in SHRs 20-40 mmHg)”.
As for `CCCc1nc(-c2nc(O)c3c(n2)NC(=O)C3(C)c2ccc(Cl)cc2)cn2ccnc12` (stereo not shown) [Example 14A, 5-(4-chlorophenyl)-4-hydroxy-5-methyl-2-(8-propylimidazo[1,2-a]pyrazin-6-yl)-5H-pyrrolo[2,3-d]pyrimidin-6(7H)-one], on sGC α1/β1 heterodimer, the Emax worked out at 92% and the EC50 came out at 657 nM.
In the same order, the values of `CC(C)C1(C)C(=O)Nc2nc(-c3cn4ccnc4c(Cc4ccccc4)n3)ncc21` (single isomer, unassigned) [Example 95A, 2-(8-Benzylimidazo[1,2-a]pyrazin-6-yl)-5-isopropyl-5-methyl-5H-pyrrolo[2,3-d]pyrimidin-6(7H)-one] are 113% and 36 nM.
In the same order, the values of `O=C1Nc2nc(-c3cn4ccnc4c(Cc4ccc(F)cc4)n3)ncc2C1(C(=O)NC1CC1)C1CC1` (single isomer, unassigned) [Example 68A, N,5-dicyclopropyl-2-(8-(4-fluorobenzyl)imidazo[1,2-a]pyrazin-6-yl)-6-oxo-6,7-dihydro-5H-pyrrolo[2,3-d]pyrimidine-5-carboxamide] are 138% and 254 nM.
As for `CC1(C(=O)NC2CC2)C(=O)Nc2nc(-c3cn4ccnc4c(Cc4ccc(F)cc4)n3)ncc21` (single isomer, unassigned) [Example 67B, N-Cyclopropyl-2-(8-(4-fluorobenzyl)imidazo[1,2-a]pyrazin-6-yl)-5-methyl-6-oxo-6,7-dihydro-5H-pyrrolo[2,3-d]pyrimidine-5-carboxamide], on sGC α1/β1 heterodimer, the EC50 was 936 nM and the “% Act.” value turned out to be 149%.
In the same order, the values of `CC1(C(=O)NC2CC2)C(=O)Nc2nc(-c3cn4ccnc4c(Cc4ccccc4F)n3)ncc21` (single isomer, unassigned) [Example 69B, N-cyclopropyl-2-(8-(2-fluorobenzyl)imidazo[1,2-a]pyrazin-6-yl)-5-methyl-6-oxo-6,7-dihydro-5H-pyrrolo[2,3-d]pyrimidine-5-carboxamide] are 226 nM and 118%.
As for `CCCCc1nc(-c2nc3c(c(C4CC4)n2)C(C)(c2ccc(F)cn2)C(=O)N3)cn2ccnc12` (stereo not shown) [Example 72B, 2-(8-butylimidazo[1,2-a]pyrazin-6-yl)-4-cyclopropyl-5-(5-fluoropyridin-2-yl)-5-methyl-5H-pyrrolo[2,3-d]pyrimidin-6(7H)-one], on sGC α1/β1 heterodimer, the Emax was 179% and the EC50 is 81 nM.
In the same order, the values of `CC1(c2ccc(Cl)cc2)C(=O)Nc2nc(-c3cn4ccnc4c(CCCC(F)(F)F)n3)ncc21` (stereo not shown) [Example 40A, 5-(4-chlorophenyl)-5-methyl-2-(8-(4,4,4-trifluorobutyl)imidazo[1,2-a]pyrazin-6-yl)-5H-pyrrolo[2,3-d]pyrimidin-6(7H)-one] are 110% and 22 nM.
In the same order, the values of `CC1(c2ccc(F)cc2)C(=O)Nc2nc(-c3cn4ccnc4c(Cc4ccc(F)cc4)n3)ncc21` (stereo not shown) [Example 80A, 2-(8-(4-fluorobenzyl)imidazo[1,2-a]pyrazin-6-yl)-5-(4-fluorophenyl)-5-methyl-5H-pyrrolo[2,3-d]pyrimidin-6(7H)-one] are 111% and 122 nM.
